Measured values from US20250268844A1, “ANTICANCER AGENTS BASED ON CYCLOPENTENONES” (UNIVERSITY OF CRETE, priority 2022, published 2025).
Values belong to the molecule of their own block, whether it stands above or below them.

Assays:
[1] = test system: A2780 ovarian carcinoma cells; experiment: MTT conversion assay, A2780; type: cell-based, human; conditions: 48 hrs treatment
Experimental: (§1) In particular, Enone-1 and Enone-2 were tested for cytotoxic activity in 17 cell lines representing a broad spectrum of human tumors. They include human colorectal carcinoma (Caco2, RKO, HCT15, HT29), liver (HepG2), lung (A549), ovarian carcinoma (A2780, 2780CP, AGE60, SKOV3), anaplastic large cell lymphoma (Mac1 and Mac2a), breast carcinoma (MDA-MB-231), cervical (HeLa), bladder cancer (VM-CUB-1), melanoma (BRO), and multiple myeloma (MR20).
(§2) Each assay was performed in triplicate and repeated in 2-3 independent experiments. Specifically, to measure cell survival, 20 μl of 10 mg/ml MTT (3-([…])-2,5-diphenyl tetrazolium bromide; Sigma) was added to each well and the plates were incubated at 37° C. in 5% CO2 for 3 hours. The supernatant was removed and the formed crystals were dissolved in 200 μl dimethyl sulphoxide. The plates were then analysed at 450 nm on a plate reader. Growth inhibition (reduction in survival) was calculated by expressing the differences in optical densities between treatment wells and control wells as a percentage of the control.

[2] = test system: 2780CP, a cis-platin-resistant derivative of A2780; experiment: MTT conversion assay, 2780CP; type: cell-based, human; conditions: for IC50: 2780CP, ovarian, cis-platin-resistant, 48 hrs treatment, MTT; for sensitivity of 2780CP cells compared with cis-platin-sensitive A2780 cells: MTT conversion assays
Experimental: as §1, §2
Resistance to platinum-based chemotherapy is a major problem in oncology that impacts therapeutic options and limits patient survival. This is relevant to several types of malignancy, including ovarian cancer where platinum resistance frequently occurs. As Enone-1 and 2 show efficacy in reducing survival of A2780 ovarian carcinoma cells, the drugs were also tested in 2780CP, a cis-platin-resistant derivative of A2780 [13].

[3] = test system: SKOV3 ovarian carcinoma cells; experiment: MTT conversion assay, SKOV3; type: cell-based, human
Experimental: as §1, §2

[4] = test system: AGE60 ovarian carcinoma cells; experiment: MTT conversion assay, AGE60; type: cell-based, human; conditions: 48 hrs treatment
Experimental: as §1, §2

[5] = test system: RKO colorectal carcinoma cells; experiment: MTT conversion assay, RKO; type: cell-based, human; conditions: colon, 48 hrs treatment
Experimental: as §1, §2

[6] = test system: HT29 colorectal carcinoma cells; experiment: MTT conversion assay, HT29; type: cell-based, human; conditions: 48 hrs treatment
Experimental: as §1, §2

[7] = test system: HCT15 colorectal carcinoma cells; experiment: MTT conversion assay, HCT15; type: cell-based, human; conditions: 48 hrs treatment
Experimental: as §1, §2

HepG2 liver cells = experiment: MTT conversion assay, HepG2; type: cell-based, human; conditions: 48 hrs treatment
Experimental: as §1, §2

A549 lung cells = experiment: MTT conversion assay, A549; type: cell-based, human; conditions: 48 hrs treatment
Experimental: as §1, §2

[8] = test system: MDA-MB-231 breast carcinoma cells; experiment: MTT conversion assay, MDA-MB-231; type: cell-based, human; conditions: 48 hrs treatment
Experimental: as §1, §2

[9] = test system: MR20 multiple myeloma cells; experiment: MTT conversion assay, MR20; type: cell-based, human; conditions: 48 hrs treatment
Experimental: as §1, §2

[10] = test system: HeLa cervical carcinoma cells; experiment: MTT conversion assay, HeLa; type: cell-based, human; conditions: 48 hrs treatment
Experimental: as §1, §2

[11] = test system: VM-CUB-1 bladder cancer cells; experiment: MTT conversion assay, VM-CUB-1; type: cell-based, human; conditions: 48 hrs treatment
Experimental: as §1, §2

BRO melanoma cells = experiment: MTT conversion assay, BRO; type: cell-based, human; conditions: 48 hrs treatment
Experimental: as §1, §2

[12] = test system: A2780 ovarian cancer cells; experiment: PrestoBlue cell viability assay; type: cell-based, human; conditions: 72 hrs treatment, n=3 experiments
Experimental: The effects of Enone-1 and Enone-2 on cancer cells were confirmed using a second methodology, namely the PrestoBlue assay (PrestoBlue™ Cell Viability Reagent, Thermo Fisher, Catalog number: A13261), a cell permeable resazurin-based solution that functions as a cell viability indicator. A2780 ovarian cancer cells were plated as described above for the MTT assays and Enone drugs were added at increasing concentrations as indicated in FIG. 2. Cell viability was determined 72 hrs later following the addition of PrestoBlue, according to the manufacturer's instructions (Thermo Fisher).

[13] = test system: MB49 mouse bladder carcinoma cells; experiment: MTT assay, MB49; type: cell-based; conditions: 48 hrs
Experimental: FIG. 5: Effects of enone compounds on mouse tumor growth.
as §2
First, the impact of Enone-1 and Enone-2 on the survival of MB49 cells was verified by MTT assays performed as described in FIG. 1.

p53 [14] = experiment: p53 immunoblot in A2780 cells; type: cell-based, human; conditions: 2.5 μM or increasing concentrations, 6 hrs or time course
Experimental: (§3) FIG. 8: Enones induce the p53 pathway. […] Cell lysates were analyzed for p53 and GAPDH (loading control). (B) A2780 cells were cultured in the presence or absence of 2.5 μM for the indicated time points before being analyzed for p53 and GAPDH levels. (C) Treatment of A2780 cells with 2.5 μM Enone-2 results in the up-regulation of p53-regulated genes (*p<0.05; **p<0.01; ***p<0.001, n=4). (D) Induction of p53 accumulation in AGE60 ovarian carcinoma cells following 6 or 14 hr exposure to 2.5 μM Enone-2. (E) Enone-1 induces the p53 pathway in A2780 cells which were cultured in the presence of 2.5 μM of the drug and analyzed as in (B). (F) Treatment of A2780 cells with 2.5 μM Enone-2 results in the up-regulation of p53-regulated genes (*p<0.05; **p<0.01; ***p<0.001, n=3).
(§4) The effects of Enone-2 on p53 and p53-dependent transcription of cell cycle and cell death-associated genes was confirmed by immunoblotting for p53 and by reverse transcription qPCR (RT-qPCR) for mdm2, p21, bax and bbc3/puma, established p53 target genes.

γH2Ax = γH2Ax immunoblot (DNA damage response marker) in A2780 cells; type: cell-based, human; conditions: 6 hrs, increasing concentrations, relative to untreated controls
Experimental: (§5) FIG. 9. […] A2780 cells were cultured for 6 hrs in the presence of drug concentrations as indicated. (B) Effects of siRNA targeting RPL11 (siRPL11), Chek2 (siChek2) or the unrelated luciferase (Luci) genes on RPL11 and Chek2 mRNA levels quantified by RT-PCR. (C) Effects of siRpl11 on Enone-2 and oxaliplatin (OXA)-induced p53 activation. Expression levels relative to GAPDH are indicated; untreated controls (CNT) were given the arbitrary value of 1. […] Expression levels relative to GAPDH are indicated; untreated controls (CNT) were given the arbitrary value of 1.

p53 [15] = experiment: siRNA knockdown of Chek2 or Rpl11 and drug-induced p53 activation in A2780 cells; type: cell-based, human; conditions: A2780 transiently transfected with siRNAs
Experimental: as §5
To further validate this observation, A2780 cells were transiently transfected with siRNAs targeting Chek2 which is required for DDR-induced p53, or Rpl11 which is required for RS-mediated p53 activation. The efficacy and specificity of the knockdowns were confirmed by RT-qPCR (FIG. 9B).

[16] = test system: Caco-2 colorectal carcinoma cells; experiment: MTT conversion assay, Caco-2; type: cell-based; conditions: Homo sapiens, Caco-2, colon, 48 hrs treatment
Experimental: as §1, §2

[17] = test system: mdm2, p21, bax and bbc3/puma; experiment: RT-qPCR of p53 target genes in A2780 cells; type: cell-based, human; conditions: 2.5 μM
Experimental: as §3, §4

Structure (SMILES): N.N.[Cl][Pt][Cl] [cis-platin, reference compound]
IC50 [1]: 1.4 µM
IC50 [2]: 10 µM
sensitivity of 2780CP cells compared with cis-platin-sensitive A2780 cells [2]: less sensitive
IC50 ([3]; 48 hrs treatment): 4 µM
IC50 [4]: 5 µM
IC50 [5]: 19 µM
IC50 ([6]; HT29, colon): 13.5 µM
IC50 ([7]; HCT15, colon): 14 µM
IC50 (HepG2 liver cells): 9 µM
IC50 (A549 lung cells): 7.5 µM
IC50 [8]: 32 µM
IC50 [9]: ~5.8 µM
IC50 ([9]; listed as Cis-platin): 5.8 µM
IC50 [10]: ~31 µM
IC50 ([10]; listed as Cis-platin): 31 µM
IC50 [11]: 7.9 µM
IC50 (BRO melanoma cells): 15.2 µM
IC50 [12]: 1.4 µM
IC50 [13]: 3.8 µM
p53 accumulation (immunoblot) (p53 [14]): less effective
γH2Ax induction (marker of DDR) (γH2Ax): induced γH2Ax
effect of Chek2 or Rpl11 siRNA knockdown on drug-induced p53 activation (p53 [15]): Chek2 knockdown ameliorated cis-platin-induced p53 activation

IC50 ([1]; Homo sapiens): 0.6 µM
IC50 ([2]; Homo sapiens, A2780): 0.75 µM
IC50 ([3]; Homo sapiens, SK-OV-3, 48 hrs treatment): 0.8 µM
IC50 ([4]; Homo sapiens, Ovarian carcinoma cell): 1 µM
IC50 ([5]; Homo sapiens): 1.3 µM
IC50 ([6]; Homo sapiens, HT-29, HT29, colon): 1.2 µM
IC50 [16]: 1.8 µM
IC50 ([7]; Homo sapiens, HCT-15, HCT15, colon): 1.2 µM
IC50 (HepG2 liver cells; Homo sapiens): 3.8 µM
IC50 (A549 lung cells; Homo sapiens): 1.7 µM
IC50 ([9]; Homo sapiens, Multiple myeloma cell): 0.05 µM
IC50 ([11]; Homo sapiens): 1.2 µM
IC50 (BRO melanoma cells; Homo sapiens): 3.9 µM
IC50 ([12]; Homo sapiens): 0.2 µM
IC50 [13]: 1.4 µM
Structure (SMILES): C[C@@]1(O)C=CC(=O)C1c1ccc2ccccc2c1 (stereo in doubt) [Enone-1, 4-hydroxy-4-methyl-5-(naphthalen-2-yl)cyclopent-2-en-1-one]
sensitivity of 2780CP cells compared with cis-platin-sensitive A2780 cells [2]: nearly as sensitive
sensitivity of 2780CP cells compared with cis-platin-sensitive A2780 cells ([2]; listed as Enone1): remain sensitive
p53 accumulation (immunoblot) (p53 [14]): induce p53
mdm2, p21, bax and bbc3/puma mRNA (p53-dependent gene expression) [17]: induce p53 and p53-dependent gene expression

Structure (SMILES): O=C1[O][Pt]2([NH][C@@H]3CCCC[C@H]3[NH]2)[O]C1=O [oxaliplatin, reference compound]
IC50 [12]: 0.27 µM
effect of Chek2 or Rpl11 siRNA knockdown on drug-induced p53 activation (p53 [15]): depletion of Rpl11 reduced oxaliplatin-induced p53 accumulation
